Measurements published in patent US20050107441A1, “Compositions and methods for altering glucose production” (priority 2001, published 2005).

Columns and labels:
[1] = system: SHP mRNA; test: Insulin treatment of ZDF rats, real-time quantitative PCR of liver RNA: SHP mRNA; type: in vivo, Zucker diabetic fatty (ZDF) rats; conditions: pooled RNA samples, 6 hours after subcutaneous insulin vs vehicle (0.9% normal saline)
Procedure: (§1) In these experiments, ZDF rats were treated for 6 hours with insulin or vehicle (0.9% normal saline) alone. At the end of this period, the rats were killed and RNA prepared from their livers. […] Conversely, PEPCK levels decreased by approximately 2 fold in response to insulin.
(§2) All procedures performed were in compliance with the Animal Welfare Act, USDA regulations and approved by the GlaxoSmithKline Institutional Animal Care and Use Committee. Animals were housed at 72 F and 50% relative humidity with a 12 hour light and dark cycle, and fed chow diet (Formulab Diet 5008, PMI Feeds Inc., Richmond, Ind.). Insulin-treated animals received a mixture of HUMULIN®N and HUMULIN®R (Lilly, Indianapolis, Ind.) by subcutaneous injection and were sacrificed six hours later. RTQ-PCR was performed using an ABI PRISM 7700 Sequence Detection System instrument and software (PE Applied Biosystems, Inc., Foster City, Calif.) in accordance with procedures described by Way et al. (Endocrinology 2001 142: 1269-77). Primers used include:Rat PEPCK forward: TGAGGAAGTTTGTGGAAG (SEQ ID NO:1) • Rat PEPCK reverse: GCCGTCGCAGATGTGAAT (SEQ ID NO:2) • Rat PEPCK probe: TGCCCAGCTGTGCCAGCC (SEQ ID NO:3) • Rat SHP forward: TGGTACCCAGCTAGCCAAG (SEQ ID NO:4) • Rat SHP reverse: TGTTCTTGAGGGTGGAAGC (SEQ ID NO: 5) • Rat SHP probe: CGCCTGGCCCGAATCCTCC (SEQ ID NO:6) [drawing]

[2] = system: PEPCK; test: Insulin treatment of ZDF rats, real-time quantitative PCR of liver RNA: PEPCK mRNA; type: in vivo, Zucker diabetic fatty (ZDF) rats; conditions: pooled RNA samples, 6 hours after subcutaneous insulin vs vehicle (0.9% normal saline)
Procedure: as §1, §2

insulin
SHP mRNA levels increased in response to insulin [1]: approximately 17 fold | PEPCK levels decreased in response to insulin [2]: approximately 2 fold
